Measurements from the supplement of paper PMC11061612.

Tests used:
Experiment in all cases: Bliss excess, mean over the matrix (fraction); higher = more synergy
[1] = system: C-33-A (Cervical Carcinoma)
How it was run: (§1)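 After 24 hours at 37°C and 5% CO2 in 1536-well plates, cells in DMEM/F12 or RPMI plus 10% FBS received two-drug dose matrices for 72 hours. Viability came from CellTiter-Glo 2.0 luminescence and was scaled as inhibition, anchored at 0 by vehicle wells and at 1 by blank wells. Combination Emax is taken as the second-highest inhibition in the matrix, and Bliss excess as the observed combination effect less EA + EB − EA·EB, with EA and EB the single-agent effects.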

[2] = system: COR-L88 (Small Cell Lung Carcinoma)
How it was run: as §1

[3] = system: CPC-N (Small Cell Lung Carcinoma)
How it was run: as §1

[4] = system: DBTRG-05MG (Glioblastoma)
How it was run: as §1

ES6 (Ewing's Sarcoma) = system: ES6 (Ewing's Sarcoma)
How it was run: as §1

[5] = system: LS-1034 (Colorectal Carcinoma)
How it was run: as §1

[6] = system: MDA-MB-415 (Breast Carcinoma)
How it was run: as §1

[7] = system: MOLP-8 (Plasma Cell Myeloma)
How it was run: as §1

[8] = system: MOLT-13 (T-Lymphoblastic Leukemia)
How it was run: as §1

[9] = system: MONO-MAC-6 (Acute Myeloid Leukemia)
How it was run: as §1

[10] = system: MS-1 (Small Cell Lung Carcinoma)
How it was run: as §1

[11] = system: NCI-H1876 (Small Cell Lung Carcinoma)
How it was run: as §1

NCI-H2373 (Mesothelioma) = system: NCI-H2373 (Mesothelioma)
How it was run: as §1

[12] = system: NCI-H3118 (Head and Neck Carcinoma)
How it was run: as §1

[13] = system: OVCAR-3 (Ovarian Carcinoma)
How it was run: as §1

[14] = system: P32-ISH (Burkitt's Lymphoma)
How it was run: as §1

[15] = system: RCC-JW (Kidney Carcinoma)
How it was run: as §1

[16] = system: SUP-M2 (T-Cell Non-Hodgkin's Lymphoma)
How it was run: as §1

[17] = system: SiHa (Cervical Carcinoma)
How it was run: as §1

[18] = system: ZR-75-30 (Breast Carcinoma)
How it was run: as §1

Row | Compound | Bliss excess [1] | Bliss excess [2] | Bliss excess [3] | Bliss excess [4] | Bliss excess (ES6 (Ewing's Sarcoma)) | Bliss excess [5] | Bliss excess [6] | Bliss excess [7] | Bliss excess [8] | Bliss excess [9] | Bliss excess [10] | Bliss excess [11] | Bliss excess (NCI-H2373 (Mesothelioma)) | Bliss excess [12] | Bliss excess [13] | Bliss excess [14] | Bliss excess [15] | Bliss excess [16] | Bliss excess [17] | Bliss excess [18]
1 | CC(=O)c1c(C)c2cnc(Nc3ccc(N4CCNCC4)cn3)nc2n(C2CCCC2)c1=O [Palbociclib] + CC1(C)CCC(CN2CCN(c3ccc(C(=O)NS(=O)(=O)c4ccc(NCC5CCOCC5)c([N+](=O)[O-])c4)c(Oc4cnc5[nH]ccc5c4)c3)CC2)=C(c2ccc(Cl)cc2)C1 [Venetoclax] (first compound max 10 µM, 7x7, partner max 1 µM) | -0.0474 | -0.0764 | -0.0394 | -0.0477 | -0.0387 | -0.12 | -0.0338 | 0.0278 | 0.112 | 0.0129 | -0.0827 | 0.0162 | -0.0421 | -0.0142 | -0.0356 | -0.0132 | -0.0539 | -0.0058 | -0.0347 | -0.0434
2 | Cc1c2c(nn1C)CSCc1cc(n(C)n1)CSc1cc(c3ccccc3c1)OCCCc1c(C(=O)O)n(C)c3c-2c(Cl)ccc13 [AZD5991] + CC1(C)CCC(CN2CCN(c3ccc(C(=O)NS(=O)(=O)c4ccc(NCC5CCOCC5)c([N+](=O)[O-])c4)c(Oc4cnc5[nH]ccc5c4)c3)CC2)=C(c2ccc(Cl)cc2)C1 [Venetoclax] (first compound max 1 µM, 7x7, partner max 1 µM) | -0.006 | 0.136 | -0.017 | -0.0233 | -0.0065 | -0.0159 | 0.0637 | 0.0174 | 0.0266 | 0.136 | 0.0089 | 0.12 | -0.0391 | -0.0163 | -0.0103 | 0.0054 | -0.0335 | 0.0286 | -0.129 | 0.0527
3 | CCc1c2c(nc3ccc(O)cc13)-c1cc3c(c(=O)n1C2)COC(=O)[C@]3(O)CC [SN-38] + CN(C)CCCOc1ccc(-c2ccc3ncc4c(c3c2)n(C2CCOCC2)c(=O)n4C)cn1 [AZD0156] (first compound max 0.3 µM, 7x7, partner max 1 µM) | 0.0058 | -0.0636 | 0.199 | -0.019 | 0.0441 | 0.139 | -0.0262 | -0.142 | 0.085 | 0.0746 | -0.0384 | -0.0111 | -0.0037 | 0.0864 | -0.037 | 0.0657 | 0.05 | 0.061 | -0.0241 | -0.194
4 | CN(C)CCCOc1ccc(-c2ccc3ncc4c(c3c2)n(C2CCOCC2)c(=O)n4C)cn1 [AZD0156] + C=CCn1c(=O)c2cnc(Nc3ccc(N4CCN(C)CC4)cc3)nc2n1-c1cccc(C(C)(C)O)n1 [AZD1775] (first compound max 1 µM, partner max 1 µM) | -0.0461 | -0.0013 | -0.0025 | -0.0489 | -0.0501 | -0.0318 | -0.0615 | -0.0739 | 0.0227 | 0.0017 | -0.0301 | 0.0171 | -0.0126 | -0.0933 | -0.02 | -0.011 | -0.061 | 0.0535 | -0.0334 | -0.0398
5 | Cc1cc2ncnn2cc1Nc1ncc2c(n1)n(C1CCOCC1)c(=O)n2C [AZD7648] + CN(C)CCCOc1ccc(-c2ccc3ncc4c(c3c2)n(C2CCOCC2)c(=O)n4C)cn1 [AZD0156] (first compound max 10 µM, 7x7, partner max 1 µM) | 0.033 | -0.0326 | 0.0326 | -0.0363 | -0.0234 | -0.0187 | -0.0254 | 0.0712 | 0.0053 | -0.0869 | 0.0245 | 0.0523 | -0.0077 | 0.0143 | 0.0157 | 0.0153 | -0.0158 | 0.0397 | -0.0074 | -0.0321
6 | Cn1cnc2c(F)c(Nc3ccc(Br)cc3Cl)c(C(=O)NOCCO)cc21 [Selumetinib] + CCN(CCO)CCCOc1ccc2c(Nc3cc(CC(=O)Nc4cccc(F)c4)[nH]n3)ncnc2c1 [AZD2811] (first compound max 10 µM, 7x7, partner max 1 µM) | 0.0162 | 0.0014 | -0.0474 | 0.016 | -0.0508 | -0.0556 | -0.0064 | -0.017 | 0.0312 | 0.003 | -0.0261 | 0.0986 | -0.0082 | 0.0259 | -0.0239 | -0.0479 | -0.0464 | -0.001 | -0.0355 | -0.0544
7 | NC1(C(=O)N[C@@H](CCO)c2ccc(Cl)cc2)CCN(c2ncnc3[nH]ccc23)CC1 [Capivasertib] + C[C@@H]1COCCN1C2=NC(=NC(=C2)C3(CC3)[S@](=N)(=O)C)C4=C5C=CNC5=NC=C4 [AZD6738] (first compound max 10 µM, 7x7, partner max 10 µM) | -0.065 | -0.0456 | -0.0117 | 0.0064 | -0.0479 | -0.0782 | -0.0516 | 0.0357 | -0.0387 | -0.0397 | -0.0465 | 0.0649 | -0.0301 | -0.0807 | -0.0169 | 0.0277 | -0.0713 | 0.0523 | 0.0259 | -0.057
8 | NC1(C(=O)N[C@@H](CCO)c2ccc(Cl)cc2)CCN(c2ncnc3[nH]ccc23)CC1 [Capivasertib] + CC(=O)c1c(C)c2cnc(Nc3ccc(N4CCNCC4)cn3)nc2n(C2CCCC2)c1=O [Palbociclib] (first compound max 10 µM, 7x7, partner max 10 µM) | -0.042 | -0.0113 | -0.0448 | -0.0072 | -0.0055 | -0.0157 | -0.0234 | 0.0115 | 0.0311 | 0.0034 | -0.0055 | -0.0263 | -0.0016 | 0.0463 | -0.0396 | 0.0066 | 0.0347 | 0.0198 | -0.022 | -0.0173
9 | COc1cccc(OCCCN)c1-c1cc(Nc2cnc(C#N)cn2)n[nH]1 [Prexasertib] + Cc1cc2ncnn2cc1Nc1ncc2c(n1)n(C1CCOCC1)c(=O)n2C [AZD7648] (first compound max 1 µM, 7x7, partner max 10 µM) | -0.0283 | -0.0628 | -0.0459 | -0.0105 | 0.0027 | -0.0229 | -0.0331 | -0.013 | 0.004 | 0.0406 | -0.0228 | -0.0713 | -0.0099 | -0.0501 | -0.0213 | -0.0068 | 0.0374 | 0.0696 | -0.0174 | -0.0463
10 | CCN(CCO)CCCOc1ccc2c(Nc3cc(CC(=O)Nc4cccc(F)c4)[nH]n3)ncnc2c1 [AZD2811] + C[C@@H]1COCCN1C2=NC(=NC(=C2)C3(CC3)[S@](=N)(=O)C)C4=C5C=CNC5=NC=C4 [AZD6738] (first compound max 1 µM, 7x7, partner max 10 µM) | -0.0531 | -0.0598 | -0.0794 | -0.0657 | -0.0479 | -0.0473 | -0.0438 | -0.028 | -0.0075 | -0.0262 | -0.0585 | -0.0316 | -0.0139 | -0.0682 | -0.0269 | -0.0153 | -0.0203 | -0.0545 | -0.0137 | -0.0533
11 | CC1(C)CCC(CN2CCN(c3ccc(C(=O)NS(=O)(=O)c4ccc(NCC5CCOCC5)c([N+](=O)[O-])c4)c(Oc4cnc5[nH]ccc5c4)c3)CC2)=C(c2ccc(Cl)cc2)C1 [Venetoclax] + C1CN(CCC1(C(=O)N[C@@H](CCO)C2=CC=C(C=C2)Cl)N)C3=NC=NC4=C3C=CN4 [Capivasertib] (first compound max 1 µM, 7x7, partner max 3 µM) | -0.0453 | -0.0181 | -0.0365 | -0.0522 | -0.0858 | -0.0214 | -0.102 | -0.0114 | 0.0354 | -0.0214 | -0.0572 | -0.0952 | -0.0774 | -0.0641 | -0.0288 | -0.0094 | -0.0312 | -0.0232 | -0.002 | -0.0324
